{"source": "patent US10857121B2", "about": "“Use of malononitrile compounds for protecting animals from parasites” (MERIAL INC., priority 2014, dated 2020)", "key": {"Haematobia irritans [1]": {"tested_on": "Haematobia irritans", "test": "In vivo efficacy against Haematobia irritans in cattle, topical pour-on", "details": "for % Efficacy vs. Haematobia irritans at 5 h: 5 h after infestation, Day 13"}, "Haematobia irritans [2]": {"tested_on": "Haematobia irritans", "test": "In vivo efficacy against Haematobia irritans in cattle, topical pour-on", "details": "for % Efficacy vs. Haematobia irritans at 5 h: 5 h after infestation; for % Efficacy vs. Haematobia irritans at 24 h: 24 h after infestation", "description": "A representative compound of the invention (II-35) was evaluated for efficacy against 20 Haematobia irritans in cattle when applied topically. Four treatment groups and one untreated control group containing four animals each were formed. Treatment Group 1 was an untreated control and Treatment Group 5 was a positive control group treated with a pour-on product containing 5% (w/v) cypermethrin (Cypermil Pour-on). The animals in Treatment Groups 2, 3 and 4 were treated with a pour-on composition containing compound (II-35) to deliver doses of 20 mg/kg, 10 mg/kg and 5 mg/kg body weight, respectively. The pour-on formulations comprised a mixture of 20% (w/v), 10% (w/v) and 5% (w/v) of the active dissolved in a carrier comprising 50% (v/v)N-methylpyrrolidone, 5% (v/v) dimethyl isosorbide and qs with Miglyol® 840. All animals were infested with approximately 200 Haematobia irritans flies on Days 1, 7, 14 and 21. As the source of flies was natural and the amount of flies decreased, the infestations On Days 28 and 35 animals were with approximately 100 horn flies due to a lack of flies. Additionally, Treatment Groups 3 and 5 were not infested on Day 35, due to the lack of flies. The flies were counted and recorded five hours following infestation and on the following day (at 24 h). The counts done on Day 2 were at 48 hours after treatment.\nThe % efficacy (% reduction) of the each treatment group compared with the untreated control group is shown in Tables 2 and 3 below and in FIG. 1."}}}
{"smiles": "C#Cc1ccc(CC(C#N)(C#N)c2ccc(F)cc2)cc1", "note": "[II-35]", "values": [{"measurement": "% Efficacy vs. Haematobia irritans at 5 h", "setting": "Haematobia irritans [1]; pour-on 10 mg/kg (Group 3)", "result": 93.8, "unit": "%"}, {"measurement": "efficacy vs. Haematobia irritans", "setting": "Haematobia irritans [1]; pour-on 10 mg/kg (Group 3), until Day 13, after 5 hours post infestation", "result": "above 93%"}, {"measurement": "% Efficacy vs. Haematobia irritans at 5 h", "setting": "Haematobia irritans [1]; pour-on 20 mg/kg (Group 2)", "result": 97.7, "unit": "%"}, {"measurement": "% Efficacy vs. Haematobia irritans at 5 h", "setting": "Haematobia irritans [2]; pour-on 5 mg/kg (Group 4), Day 1", "result": 99.5, "unit": "%"}, {"measurement": "% Efficacy vs. Haematobia irritans at 5 h", "setting": "Haematobia irritans [2]; pour-on 5 mg/kg (Group 4), Day 7", "result": 98.3, "unit": "%"}, {"measurement": "% Efficacy vs. Haematobia irritans at 5 h", "setting": "Haematobia irritans [2]; pour-on 5 mg/kg (Group 4), Day 13", "result": 93.2, "unit": "%"}, {"measurement": "% Efficacy vs. Haematobia irritans at 5 h", "setting": "Haematobia irritans [2]; pour-on 5 mg/kg (Group 4), Day 21", "result": 80.0, "unit": "%"}, {"measurement": "% Efficacy vs. Haematobia irritans at 5 h", "setting": "Haematobia irritans [2]; pour-on 5 mg/kg (Group 4), Day 28", "result": 64.1, "unit": "%"}, {"measurement": "% Efficacy vs. Haematobia irritans at 5 h", "setting": "Haematobia irritans [2]; pour-on 5 mg/kg (Group 4), Day 35", "result": 51.5, "unit": "%"}, {"measurement": "% Efficacy vs. Haematobia irritans at 24 h", "setting": "Haematobia irritans [2]; pour-on 5 mg/kg (Group 4), Day 2", "result": 100.0, "unit": "%"}, {"measurement": "% Efficacy vs. Haematobia irritans at 24 h", "setting": "Haematobia irritans [2]; pour-on 5 mg/kg (Group 4), Day 8", "result": 99.7, "unit": "%"}, {"measurement": "% Efficacy vs. Haematobia irritans at 24 h", "setting": "Haematobia irritans [2]; pour-on 5 mg/kg (Group 4), Day 14", "result": 100.0, "unit": "%"}, {"measurement": "% Efficacy vs. Haematobia irritans at 24 h", "setting": "Haematobia irritans [2]; pour-on 5 mg/kg (Group 4), Day 22", "result": 93.5, "unit": "%"}, {"measurement": "% Efficacy vs. Haematobia irritans at 24 h", "setting": "Haematobia irritans [2]; pour-on 5 mg/kg (Group 4), Day 29", "result": 95.5, "unit": "%"}, {"measurement": "% Efficacy vs. Haematobia irritans at 24 h", "setting": "Haematobia irritans [2]; pour-on 5 mg/kg (Group 4), Day 36", "result": 88.1, "unit": "%"}, {"measurement": "efficacy vs. Haematobia irritans", "setting": "Haematobia irritans [2]; pour-on 5 mg/kg (Group 4), until Day 13, after 5 hours post infestation", "result": "above 93%"}, {"measurement": "efficacy vs. Haematobia irritans", "setting": "Haematobia irritans [2]; pour-on 5 mg/kg (Group 4), until Day 29, after 24 hours post infestation", "result": "above 93%"}, {"measurement": "% Efficacy vs. Haematobia irritans at 5 h", "setting": "Haematobia irritans [2]; pour-on 10 mg/kg (Group 3), Day 1", "result": 98.9, "unit": "%"}, {"measurement": "% Efficacy vs. Haematobia irritans at 5 h", "setting": "Haematobia irritans [2]; pour-on 10 mg/kg (Group 3), Day 7", "result": 98.2, "unit": "%"}, {"measurement": "% Efficacy vs. Haematobia irritans at 5 h", "setting": "Haematobia irritans [2]; pour-on 10 mg/kg (Group 3), Day 21", "result": 68.3, "unit": "%"}, {"measurement": "% Efficacy vs. Haematobia irritans at 5 h", "setting": "Haematobia irritans [2]; pour-on 10 mg/kg (Group 3), Day 28", "result": 65.6, "unit": "%"}, {"measurement": "% Efficacy vs. Haematobia irritans at 24 h", "setting": "Haematobia irritans [2]; pour-on 10 mg/kg (Group 3), Day 2", "result": 100.0, "unit": "%"}, {"measurement": "% Efficacy vs. Haematobia irritans at 24 h", "setting": "Haematobia irritans [2]; pour-on 10 mg/kg (Group 3), Day 8", "result": 100.0, "unit": "%"}, {"measurement": "% Efficacy vs. Haematobia irritans at 24 h", "setting": "Haematobia irritans [2]; pour-on 10 mg/kg (Group 3), Day 14", "result": 100.0, "unit": "%"}, {"measurement": "% Efficacy vs. Haematobia irritans at 24 h", "setting": "Haematobia irritans [2]; pour-on 10 mg/kg (Group 3), Day 22", "result": 93.1, "unit": "%"}, {"measurement": "% Efficacy vs. Haematobia irritans at 24 h", "setting": "Haematobia irritans [2]; pour-on 10 mg/kg (Group 3), Day 29", "result": 69.2, "unit": "%"}, {"measurement": "efficacy vs. Haematobia irritans", "setting": "Haematobia irritans [2]; pour-on 10 mg/kg (Group 3), until Day 22, after 24 hours post infestation", "result": "above 93%"}, {"measurement": "% Efficacy vs. Haematobia irritans at 5 h", "setting": "Haematobia irritans [2]; pour-on 20 mg/kg (Group 2), Day 1", "result": 97.8, "unit": "%"}, {"measurement": "% Efficacy vs. Haematobia irritans at 5 h", "setting": "Haematobia irritans [2]; pour-on 20 mg/kg (Group 2), Day 7", "result": 99.2, "unit": "%"}, {"measurement": "% Efficacy vs. Haematobia irritans at 5 h", "setting": "Haematobia irritans [2]; pour-on 20 mg/kg (Group 2), Day 21", "result": 86.6, "unit": "%"}, {"measurement": "% Efficacy vs. Haematobia irritans at 5 h", "setting": "Haematobia irritans [2]; pour-on 20 mg/kg (Group 2), Day 28", "result": 85.0, "unit": "%"}, {"measurement": "% Efficacy vs. Haematobia irritans at 5 h", "setting": "Haematobia irritans [2]; pour-on 20 mg/kg (Group 2), Day 35", "result": 65.8, "unit": "%"}, {"measurement": "% Efficacy vs. Haematobia irritans at 24 h", "setting": "Haematobia irritans [2]; pour-on 20 mg/kg (Group 2), Day 2", "result": 100.0, "unit": "%"}, {"measurement": "% Efficacy vs. Haematobia irritans at 24 h", "setting": "Haematobia irritans [2]; pour-on 20 mg/kg (Group 2), Day 8", "result": 98.3, "unit": "%"}, {"measurement": "% Efficacy vs. Haematobia irritans at 24 h", "setting": "Haematobia irritans [2]; pour-on 20 mg/kg (Group 2), Day 14", "result": 100.0, "unit": "%"}, {"measurement": "% Efficacy vs. Haematobia irritans at 24 h", "setting": "Haematobia irritans [2]; pour-on 20 mg/kg (Group 2), Day 22", "result": 97.9, "unit": "%"}, {"measurement": "% Efficacy vs. Haematobia irritans at 24 h", "setting": "Haematobia irritans [2]; pour-on 20 mg/kg (Group 2), Day 29", "result": 96.9, "unit": "%"}, {"measurement": "% Efficacy vs. Haematobia irritans at 24 h", "setting": "Haematobia irritans [2]; pour-on 20 mg/kg (Group 2), Day 36", "result": 85.6, "unit": "%"}, {"measurement": "efficacy vs. Haematobia irritans", "setting": "Haematobia irritans [2]; pour-on 20 mg/kg (Group 2), until Day 13, after 5 hours post infestation", "result": "above 93%"}, {"measurement": "efficacy vs. Haematobia irritans", "setting": "Haematobia irritans [2]; pour-on 20 mg/kg (Group 2), until Day 29, after 24 hours post infestation", "result": "above 93%"}]}
